System: HUVEC cells
Protocol: Human umbilical vein endothelial cells (HUVECs) were grown in endothelial growth medium (EGM-2, Lonza) supplemented with 10% fetal bovine serum (Gibco) and 1% PSG (Penicillin-Streptomycin-Glutamine, Gibco). […] At the same time, the cellular toxicity of degradation product of PXDDA on HUVEC cells was also evaluated. For this purpose, 104 cells were first seeded and cultured on the 96-well plates for 3 days. The degradation products were diluted with culture medium to obtain different concentrations (12.5, 25, and 40% v/v), and they were then added into the cells. After 36 h, 20 μl of MTT solution was added and the plated was incubated at 37° C. for 4 h. After adding 200 μl of DMSO, the absorbance was recorded at 570 nm. The measurements were carried out in triplicate.

With “poly(xylitol-dodecanedioic acid) [PXDDA]” the “toxicity of degradation products to HUVEC cells (MTT)” value was “No tangible toxicity”.

Source: patent publication US11370880B1 (FLORIDA ATLANTIC UNIVERSITY BOARD OF TRUSTEES, priority 2018, dated 2022)
